# Literature values in publication PMC12440824, “Chimeric deubiquitinase engineering reveals structural basis for specific inhibition of the mitophagy regulator USP30” (Nature Structural & Molecular Biology, 2025).
# Read-outs that look alike come from different tables or passages of the source.
# Tested on: USP30
# Conditions: read-out: Cellular ABPP IC50 / cellular target engagement, cited from earlier work
smiles,measurement,setting,value
CC(C)(C)NS(=O)(=O)c1ccc(NC(=O)[C@H](Cc2ccccc2)NC(=O)c2ccc(F)cc2)cc1 [compound 39],IC50,listed as Compound 39,< 50 nM
same,IC50,,10 to 50 nM
